Measurements taken from patent publication US20230399341A1, “7-PHENYL SUBSTITUTED 2-AMINOQUINAZOLINE INHIBITORS OF HPK1” (MERCK SHARP & DOHME LLC, priority 2020, published 2023).

Biological target: T1, Human HPK1, catalytic domain (Homo sapiens, UniProt Q92918)
T1 sequence (Q92918 1-346): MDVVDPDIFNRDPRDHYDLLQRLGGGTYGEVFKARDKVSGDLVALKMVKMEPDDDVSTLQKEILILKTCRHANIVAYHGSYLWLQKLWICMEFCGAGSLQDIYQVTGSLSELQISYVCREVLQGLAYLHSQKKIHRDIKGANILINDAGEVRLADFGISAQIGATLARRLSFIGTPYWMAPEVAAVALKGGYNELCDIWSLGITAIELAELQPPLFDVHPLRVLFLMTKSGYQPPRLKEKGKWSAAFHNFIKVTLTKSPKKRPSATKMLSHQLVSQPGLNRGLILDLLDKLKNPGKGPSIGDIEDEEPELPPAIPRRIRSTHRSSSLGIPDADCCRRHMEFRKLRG
Test: HPK1-SLP76 TR-FRET Assay
Type: biochemical
Conditions: 75 pM HPK1, ATP 10 uM, SLP76 10 nM, 30 min pre-incubation, 60 min reaction

IC50	SMILES
0.132 nM	Cc1c(-c2cc3nc(Nc4ccc(CC(=O)N(C)C)cc4)ncc3cc2F)cnc2c1NCCO2 [Compound 1-132, 2-(4-{[6-fluoro-7-(8-methyl-2,3-dihydro-1H-pyrido[2,3-b][1,4]oxazin-7-yl)quinazolin-2-yl]amino}phenyl)-N,N-dimethylacetamide]
0.0835 nM	Cc1c(-c2cc3nc(Nc4ccc(CC(=O)N5CCOCC5)cc4)ncc3cc2F)cnc2c1NCCO2 [Compound 1-133, 2-(4-{[6-fluoro-7-(8-methyl-2,3-dihydro-1H-pyrido[2,3-b][1,4]oxazin-7-yl)quinazolin-2-yl]amino}phenyl)-1-(morpholin-4-yl)ethan-1-one]
0.0425 nM	CCS(=O)(=O)Cc1ccc(Nc2ncc3cc(F)c(-c4cnc5c(c4C)NCCO5)cc3n2)cc1 [Compound 1-134, N-{4-[(ethylsulfonyl)methyl]phe-nyl}-6-fluoro-7-(8-methyl-2,3-dihydro-1H-pyrido[2,3-b][1,4]oxazin-7-yl)quinazolin-2-amine]
0.482 nM	Cc1c(-c2cc3nc(Nc4cnc5c(c4)CN(C)CC5)ncc3cc2F)cnc2c1NCCO2 [Compound 1-135, 6-fluoro-7-(8-methyl-2,3-dihydro-1H-pyrido[2,3-b][1,4]oxazin-7-yl)-N-(6-methyl-5,6,7,8-tetrahydro-1,6-naphthyridin-3-yl)quinazolin-2-amine]
0.249 nM	COc1cc2c(cc1Nc1ncc3c(N)c(F)c(-c4cncc(N)c4C)cc3n1)CN(C)CC2 [Compound 2-1, 7-(5-amino-4-methylpyridin-3-yl)-6-fluoro-N~2~-(6-methoxy-2-methyl-1,2,3,4-tetrahydroisoquinolin-7-yl)quinazoline-2,5-diamine]
0.0915 nM	COc1cc2c(cc1Nc1ncc3c(N)c(F)c(-c4cnc5c(c4C)NCCO5)cc3n1)CN(C)CC2 [Compound 2-2, 6-fluoro-N~2~-(6-methoxy-2-methyl-1,2,3,4-tetrahydroisoquinolin-7-yl)-7-(8-methyl-2,3-dihydro-1H-pyrido[2,3-b][1,4]oxazin-7-yl)quinazoline-2,5-diamine]
323 nM	COC(=O)Cc1ccc(OC)c(Nc2ncc3c(N)c(F)c(-c4cnc5c(c4C)NCCO5)cc3n2)c1 [Compound 2-3, methyl (3-{[5-amino-6-fluoro-7-(8-methyl-2,3-dihydro-1H-pyrido[2,3-b][1,4]oxazin-7-yl)quinazolin-2-yl]amino}-4-methoxyphenyl)acetate]
0.979 nM	COc1cc2c(cc1Nc1ncc3c(N)c(F)c(-c4cnc5c(c4C)NCCO5)cc3n1)CNCC2 [Compound 2-4, 6-fluoro-N~2~-(6-methoxy-1,2,3,4-tetrahydroisoquinolin-7-yl)-7-(8-methyl-2,3-dihydro-1H-pyrido[2,3-b][1,4]oxazin-7-yl)quinazoline-2,5-diamine]
270 nM	COc1ccc(CC#N)cc1Nc1ncc2c(N)c(F)c(-c3cnc4c(c3C)NCCO4)cc2n1 [Compound 2-5, (3-{[5-amino-6-fluoro-7-(8-methyl-2,3-dihydro-1H-pyrido[2,3-b][1,4]oxazin-7-yl)quinazolin-2-yl]amino}-4-methoxyphenyl)acetonitrile]
48.1 nM	COc1cc(S(N)(=O)=O)ccc1Nc1ncc2c(N)c(F)c(-c3cnc4c(c3C)NCCO4)cc2n1 [Compound 2-6, 4-{[5-amino-6-fluoro-7-(8-methyl-2,3-dihydro-1H-pyrido[2,3-b][1,4]oxazin-7-yl)quinazolin-2-yl]amino}-3-methoxybenzene-1-sulfonamide]
0.112 nM	CC(=O)N1CCCc2cc(Nc3ncc4c(N)c(F)c(-c5cnc6c(c5C)NCCO6)cc4n3)ccc21 [Compound 2-7, 1-[6-{[5-amino-6-fluoro-7-(8-methyl-2,3-dihydro-1H-pyrido[2,3-b][1,4]oxazin-7-yl)quinazolin-2-yl]amino}-3,4-dihydroquinolin-1(2H)-yl]ethan-1-one]
116 nM	Cc1c(-c2cc3nc(Nc4ccccc4OC(F)(F)F)ncc3c(N)c2F)cnc2c1NCCO2 [Compound 2-8, 6-fluoro-7-(8-methyl-2,3-dihydro-1H-pyrido[2,3-b][1,4]oxazin-7-yl)-N~2~- [2-(trifluoromethoxy)phenyl] quinazoline-2,5-diamine]
0.129 nM	Cc1c(-c2cc3nc(Nc4cccnc4)ncc3c(N)c2F)cnc2c1NCCO2 [Compound 2-9, 6-fluoro-7-(8-methyl-2,3-dihydro-1H-pyrido[2,3-b][1,4]oxazin-7-yl)-N~2~- (pyridin-3-yl)quinazoline-2,5-diamine]
685 nM	COc1cc2c(cc1Nc1ncc3c(N)c(F)c(-c4cnc5c(c4C)NCCO5)cc3n1)CN(C(C)=O)CC2 [Compound 2-12, 1-[7-{[5-amino-6-fluoro-7-(8-methyl-2,3-dihydro-1H-pyrido[2,3-b][1,4]oxazin-7-yl)quinazolin-2-yl]amino}-6-methoxy-3,4-dihydroisoquinolin-2(1H)-yl]ethan-1-one]
0.0496 nM	CNC(=O)Cc1ccc(Nc2ncc3c(N)c(F)c(-c4cnc5c(c4C)NCCO5)cc3n2)cc1 [Compound 2-13]
0.082 nM	Cc1c(-c2cc3nc(Nc4cccc(S(C)(=O)=O)c4)ncc3c(N)c2F)cnc2c1NCCO2 [Compound 2-14, 6-fluoro-7-(8-methyl-2,3-dihydro-1H-pyrido[2,3-b][1,4]oxazin-7-yl)-N~2~- [3-(methylsulfonyl)phenyl] quinazoline-2,5-diamine]

IC50	SMILES
0.0731 nM	CC(=O)Nc1ccc(Nc2ncc3c(N)c(F)c(-c4cnc5c(c4C)NCCO5)cc3n2)cc1 [Compound 2-15]
0.0932 nM	Cc1c(-c2cc3nc(Nc4ccc(NS(C)(=O)=O)cc4)ncc3c(N)c2F)cnc2c1NCCO2 [Compound 2-16, N-(4-{[5-amino-6-fluoro-7-(8-methyl-2,3-dihydro-1H-pyrido[2,3-b][1,4]oxazin-7-yl)quinazolin-2-yl]amino}phenyl)methane-sulfonamide]
0.0851 nM	Cc1c(-c2cc3nc(Nc4ccc(S(C)(=O)=O)cc4)ncc3c(N)c2F)cnc2c1NCCO2 [Compound 2-17, 6-fluoro-7-(8-methyl-2,3-dihydro-1H-pyrido[2,3-b][1,4]oxazin-7-yl)-N~2~- [4-(methylsulfonyl)phenyl] quinazoline-2,5-diamine]
0.382 nM	Cc1c(-c2cc3nc(Nc4ccc(C5(C#N)CC5)cc4)ncc3c(N)c2F)cnc2c1NCCO2 [Compound 2-18, 1-(4-{[5-amino-6-fluoro-7-(8-methyl-2,3-dihydro-1H-pyrido[2,3-b][1,4]oxazin-7-yl)quinazolin-2-yl]amino}phenyl)cyclo-propane-1-carbonitrile]
1.34 nM	Cc1c(-c2cc3nc(Nc4cncnc4)ncc3c(N)c2F)cnc2c1NCCO2 [Compound 2-19, 6-fluoro-7-(8-methyl-2,3-dihydro-1H-pyrido[2,3-b][1,4]oxazin-7-yl)-N~2~- (pyrimidin-5-yl)quinazoline-2,5-diamine]
76.1 nM	COc1ccncc1Nc1ncc2c(N)c(F)c(-c3cnc4c(c3C)NCCO4)cc2n1 [Compound 2-20, 6-fluoro-N~2~-(4-methoxypyridin-3-yl)-7-(8-methyl-2,3-dihydro-1H-pyrido[2,3-b][1,4]oxazin-7-yl)quinazoline-2,5-diamine]
487 nM	COc1c(Nc2ncc3c(N)c(F)c(-c4cnc5c(c4C)NCCO5)cc3n2)ccc2c1CCNC(=O)C2 [Compound 2-21]
0.687 nM	Cc1c(-c2cc3nc(Nc4ccccc4F)ncc3c(N)c2F)cnc2c1NCCO2 [Compound 2-22, 6-fluoro-N~2~-(2-fluorophenyl)-7-(8-methyl-2,3-dihydro-1H-pyrido[2,3-b][1,4]oxazin-7-yl)quinazoline-2,5-diamine]
0.0508 nM	CNC(=O)c1ccc(Nc2ncc3c(N)c(F)c(-c4cnc5c(c4C)NCCO5)cc3n2)cc1 [Compound 2-23, 4-{[5-amino-6-fluoro-7-(8-methyl-2,3-dihydro-1H-pyrido[2,3-b][1,4]oxazin-7-yl)quinazolin-2-yl]amino}-N-methylbenzamide]
0.0508 nM	Cc1c(-c2cc3nc(Nc4ccc(CS(C)(=O)=O)cc4)ncc3c(N)c2F)cnc2c1NCCO2 [Compound 2-24, 6-fluoro-7-(8-methyl-2,3-dihydro-1H-pyrido[2,3-b][1,4]oxazin-7-yl)-N˜2˜-{4-[(methylsulfonyl)methyl]phenyl}quinazoline-2,5-diamine]
0.275 nM	Cc1c(-c2cc3nc(Nc4ccccc4)ncc3c(N)c2F)cnc2c1NCCO2 [Compound 2-25, 6-fluoro-7-(8-methyl-2,3-dihydro-1H-pyrido[2,3-b][1,4]oxazin-7-yl)-N~2~- phenylquinazoline-2,5-diamine]
11.5 nM	Cc1c(-c2cc3nc(Nc4ccccc4C4CC4)ncc3c(N)c2F)cnc2c1NCCO2 [Compound 2-26, N~2~-(2-cyclopropylphenyl)-6-fluoro-7-(8-methyl-2,3-dihydro-1H-pyrido[2,3-b][1,4]oxazin-7-yl)quinazoline-2,5-diamine]
0.117 nM	COc1ncccc1Nc1ncc2c(N)c(F)c(-c3cnc4c(c3C)NCCO4)cc2n1 [Compound 2-27, 6-fluoro-N~2~-(2-methoxypyridin-3-yl)-7-(8-methyl-2,3-dihydro-1H-pyrido[2,3-b][1,4]oxazin-7-yl)quinazoline-2,5-diamine]
0.0811 nM	CC(=O)NCc1ccc(Nc2ncc3c(N)c(F)c(-c4cnc5c(c4C)NCCO5)cc3n2)cc1 [Compound 2-30, N-[(4-{[5-amino-6-fluoro-7-(8-methyl-2,3-dihydro-1H-pyrido[2,3-b][1,4]oxazin-7-yl)quinazolin-2-yl]amino}phenyl)methyl] acetamide]
4.62 nM	Cc1c(-c2cc3nc(Nc4ccccc4Cl)ncc3c(N)c2F)cnc2c1NCCO2 [Compound 2-31, N~2~-(2-chlorophenyl)-6-fluoro-7-(8-methyl-2,3-dihydro-1H-pyrido[2,3-b][1,4]oxazin-7-yl)quinazoline-2,5-diamine]
